From patent publication US8642609B2, “Modulators of ATP-binding cassette transporters” (Vertex Pharmaceuticals Incorporated, priority 2003, dated 2014) come the findings set out here.

In this test the target is T1, ΔF508-CFTR (Homo sapiens, UniProt P13569, DEL508-508).
T1 construct: expressed in transfected cells
In words: Membrane potential optical assay (FRET/VIPR), identification of correction compounds. Format: cell-based. The settings on record: for Emax: relative efficacy. An excerpt:
I) Membrane Potential Optical Methods for Assaying ΔF508-CFTR Modulation Properties of Compounds
The optical membrane potential assay utilized voltage-sensitive FRET sensors described by Gonzalez and Tsien (See, Gonzalez, J. E. and R. Y. Tsien (1995) “Voltage sensing by fluorescence resonance energy transfer in single cells” Biophys J 69(4): 1272-80, and Gonzalez, J. E. and R. Y. Tsien (1997) “Improved indicators of cell membrane potential that use fluorescence resonance energy transfer” Chem Biol 4(4): 269-77) in combination with instrumentation for measuring fluorescence changes such as the Voltage/Ion Probe Reader (VIPR) (See, Gonzalez, J. E., K. Oades, et al. (1999) “Cell-based assays and instrumentation for screening ion-channel targets” Drug Discov Today 4(9): 431-439).
These voltage sensitive assays are based on the change in fluorescence resonant energy transfer (FRET) between the membrane-soluble, voltage-sensitive dye, DiSBAC2(3), and a fluorescent phospholipid, CC2-DMPE, which is attached to the outer leaflet of the plasma membrane and acts as a FRET donor. Changes in membrane potential (Vm) cause the negatively charged DiSBAC2(3) to redistribute across the plasma membrane and the amount of energy transfer from CC2-DMPE changes accordingly. The changes in fluorescence emission were monitored using VIPR™ II, which is an integrated liquid handler and fluorescent detector designed to conduct cell-based screens in 96- or 384-well microtiter plates.
Identification of Correction Compounds
To identify small molecules that correct the trafficking defect associated with ΔF508-CFTR; a single-addition HTS assay format was developed. The cells were incubated in serum-free medium for 16 hrs at 37° C. in the presence or absence (negative control) of test compound. As a positive control, cells plated in 384-well plates were incubated for 16 hrs at 27° C. to “temperature-correct” ΔF508-CFTR. The cells were subsequently rinsed 3× with Krebs Ringers solution and loaded with the voltage-sensitive dyes. To activate ΔF508-CFTR, 10 μM forskolin and the CFTR potentiator, genistein (20 μM), were added along with Cl^−-free medium to each well. The addition of Cl^−-free medium promoted Cl^− efflux in response to ΔF508-CFTR activation and the resulting membrane depolarization was optically monitored using the FRET-based voltage-sensor dyes.
NIH3T3 mouse fibroblasts stably expressing ΔF508-CFTR are used for optical measurements of membrane potential. The cells are maintained at 37° C. in 5% CO2 and 90% humidity in Dulbecco's modified Eagle's medium supplemented with 2 mM glutamine, 10% fetal bovine serum, 1×NEAA, β-ME, 1× pen/strep, and 25 mM HEPES in 175 cm^2 culture flasks. For all optical assays, the cells were seeded at 30,000/well in 384-well matrigel-coated plates and cultured for 2 hrs at 37° C. before culturing at 27° C. for 24 hrs. for the potentiator assay. For the correction assays, the cells are cultured at 27° C. or 37° C. with and without compounds for 16-24 hours B) Electrophysiological Assays for assaying ΔF508-CFTR modulation properties of compounds

Usually EC50 stands for the concentration needed to bring the measured effect to its halfway point. What is called Emax is the size of the effect at its maximum, as opposed to the concentration needed.

T1 sequence (P13569 with tags, fused parts or gaps DEL508-508): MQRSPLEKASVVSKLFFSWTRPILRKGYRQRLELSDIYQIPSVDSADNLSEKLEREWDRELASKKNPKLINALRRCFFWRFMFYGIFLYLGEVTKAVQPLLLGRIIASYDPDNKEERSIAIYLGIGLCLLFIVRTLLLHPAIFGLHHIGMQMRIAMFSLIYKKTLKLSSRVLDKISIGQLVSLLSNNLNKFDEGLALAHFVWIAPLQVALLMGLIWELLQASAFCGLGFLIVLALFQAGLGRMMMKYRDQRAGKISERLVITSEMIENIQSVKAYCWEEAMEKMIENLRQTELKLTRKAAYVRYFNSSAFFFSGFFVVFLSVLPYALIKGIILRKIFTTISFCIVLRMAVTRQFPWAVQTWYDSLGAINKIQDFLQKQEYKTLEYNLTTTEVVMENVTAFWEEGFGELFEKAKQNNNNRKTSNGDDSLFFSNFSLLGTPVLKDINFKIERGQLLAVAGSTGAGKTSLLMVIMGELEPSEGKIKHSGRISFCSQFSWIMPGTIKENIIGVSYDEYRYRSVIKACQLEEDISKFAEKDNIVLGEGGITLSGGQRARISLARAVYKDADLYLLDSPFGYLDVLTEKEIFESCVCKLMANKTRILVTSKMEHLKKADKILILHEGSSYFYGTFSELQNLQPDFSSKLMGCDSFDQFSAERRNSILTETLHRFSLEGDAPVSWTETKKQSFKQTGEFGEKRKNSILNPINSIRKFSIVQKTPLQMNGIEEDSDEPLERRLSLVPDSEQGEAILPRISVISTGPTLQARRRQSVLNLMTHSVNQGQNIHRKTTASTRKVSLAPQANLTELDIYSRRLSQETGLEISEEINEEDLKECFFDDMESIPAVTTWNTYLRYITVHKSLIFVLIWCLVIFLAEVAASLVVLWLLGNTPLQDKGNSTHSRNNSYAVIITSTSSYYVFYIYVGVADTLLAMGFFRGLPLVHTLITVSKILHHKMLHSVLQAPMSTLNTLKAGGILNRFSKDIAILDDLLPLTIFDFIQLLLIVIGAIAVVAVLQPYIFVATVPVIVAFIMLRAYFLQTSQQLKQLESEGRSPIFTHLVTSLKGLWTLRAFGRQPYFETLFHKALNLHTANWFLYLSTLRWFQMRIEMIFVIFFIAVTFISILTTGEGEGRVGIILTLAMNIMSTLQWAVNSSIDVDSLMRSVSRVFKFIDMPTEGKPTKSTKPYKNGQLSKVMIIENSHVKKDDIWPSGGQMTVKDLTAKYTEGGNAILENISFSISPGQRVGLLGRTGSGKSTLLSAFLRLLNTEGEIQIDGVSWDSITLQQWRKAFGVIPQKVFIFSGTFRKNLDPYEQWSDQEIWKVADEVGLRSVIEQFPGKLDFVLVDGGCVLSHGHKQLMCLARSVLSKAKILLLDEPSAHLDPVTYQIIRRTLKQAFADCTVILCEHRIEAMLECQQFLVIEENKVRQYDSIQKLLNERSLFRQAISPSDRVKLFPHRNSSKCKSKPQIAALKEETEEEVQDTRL

For `CC(NCCN)c1nc2ccccc2c(=O)n1C` (stereo not shown) [compound 181], the EC50 is 25 to 60 µM and the Emax is less than 25%.

On to `Cc1nn(C)c(Cl)c1S(=O)(=O)N1CCN(C(C)c2nc3ccccc3c(=O)n2C)CC1` (stereo not shown) [compound 257], for which the half-maximal effective concentration (EC50) is 25 to 60 µM and the Emax was less than 25%.

With `CC(Nc1ccc(NS(=O)(=O)c2ccc(Cl)cc2)cc1)c1nc2ccccc2c(=O)n1C` (stereo not shown) [compound 308], the EC50 is less than 10 µM and the Emax was in the range of 25 to 100%.

On to `CC(c1nc2ccccc2c(=O)n1C)N1CCC(NS(=O)(=O)c2ccc(Cl)cc2)CC1` (stereo not shown) [compound 165], for which the EC50 was less than 10 µM and the Emax lay within 25 to 100%.

`Cc1ccc(S(=O)(=O)N2CCN(C(C)c3nc4cccc(Cl)c4c(=O)n3C)CC2)cc1` (stereo not shown) [compound 107]: the EC50 is 10 to 25 µM and the Emax was less than 25%.

In the case of `CC(NCCCNS(=O)(=O)c1ccc(Cl)cc1)c1nc2ccccc2c(=O)n1C` (stereo not shown) [compound 173], the EC50 is 25 to 60 µM and the Emax lay in the range of 25 to 100%.

With `CCCOc1nc(CC)nc2ccccc12` [compound 158], the EC50 was 25 to 60 µM and the Emax was less than 25%.

As to `CC(c1nc2ccccc2c(=O)[nH]1)N1CCN(S(=O)(=O)c2ccccc2)CC1` (stereo not shown) [compound 128], the EC50 lay in the range of 10 to 25 µM and the Emax is less than 25%.

For `Cc1ccc(NC(=O)N2CCN(C(C)c3nc4ccc(Cl)cc4c(=O)n3C)CC2)cc1` (stereo not shown) [compound 45], the EC50 fell in the range of 25 to 60 µM and the Emax was in the range of 25 to 100%.

Turning to `CC(=O)NCCn1c(C(C)N2CCN(S(=O)(=O)c3ccc(Cl)cc3)CC2)nc2ccccc2c1=O` (stereo not shown) [compound 289], the EC50 lay in the range of 25 to 60 µM and the maximum response (Emax) is 25 to 100%.

For `CC(c1nc2ccccc2c(=O)n1CCO)N1CCN(S(=O)(=O)c2ccc(Br)cc2)CC1` (stereo not shown) [compound 153], the 50% effective concentration (EC50) lay within 10 to 25 µM and the Emax lay within 25 to 100%.

Consider `COc1ccc(S(=O)(=O)N2CCN(C(C)c3nc4ccccc4c(=O)n3C)CC2)cc1OC` (stereo not shown) [compound 49], for which the EC50 was 25 to 60 µM and the Emax is less than 25%.

Take `Cc1ccc(C(=O)N2CCN(C(C)c3nc4ccccc4c(=O)n3C)CC2)cc1` (stereo not shown) [compound 74]: the EC50 lay within 10 to 25 µM and the Emax is less than 25%.

Take `COc1ccc(S(=O)(=O)N2CCN(C(C)c3nc(Nc4ccccc4)c4ccccc4n3)CC2)cc1` (stereo not shown) [compound 366]: the EC50 was less than 10 µM and the Emax is 25 to 100%.

Regarding `CC(c1nc(N2CCCCC2)c2ccccc2n1)N1CCN(S(=O)(=O)c2ccc(Cl)cc2)CC1` (stereo not shown) [compound 237], the EC50 is less than 10 µM and the Emax is more than 100%.

Consider `C[C@H](c1nc(N2CCCCC2)c2ccccc2n1)N1CCN(S(=O)(=O)c2ccc(Cl)cc2)CC1` [compound 379], for which the EC50 is less than 10 µM and the Emax is more than 100%.

Turning to `Cn1c(CN2CCN(S(=O)(=O)c3ccccc3)CC2)nc2ccc(Cl)cc2c1=O` [compound 65], the EC50 is 10 to 25 µM and the Emax is less than 25%.

`CC(c1nc2ccccc2c(=O)n1C)N1CCN(S(=O)(=O)c2c(Cl)ccc3nonc23)CC1` (stereo not shown) [compound 254]: the EC50 is less than 10 µM and the Emax was in the range of 25 to 100%.

Consider `CCNc1nc(C(C)N2CCN(S(=O)(=O)c3ccc(Br)cc3)CC2)nc2ccccc12` (stereo not shown) [compound 221], for which the EC50 was in the range of 25 to 60 µM and the Emax was 25 to 100%.

For the compound `Cc1cccc(C(=O)N2CCN(C(C)c3nc4cc(Cl)ccc4c(=O)n3C)CC2)c1` (stereo not shown) [compound 119], the EC50 was 10 to 25 µM and the Emax lay in the range of 25 to 100%.

Turning to `CCn1c(C(C)N2CCN(S(=O)(=O)c3ccccc3)CC2)nc2ccc(Cl)cc2c1=O` (stereo not shown) [compound 37], the EC50 is 10 to 25 µM and the Emax lay within 25 to 100%.

Consider `COc1ccc(S(=O)(=O)N2CCN(C(C)c3nc(N4CCCCC4C)c4ccccc4n3)CC2)cc1` (stereo not shown) [compound 326], for which the EC50 was less than 10 µM and the Emax was 25 to 100%.

As to `COc1ccc(C(=O)N2CCN(C(C)c3nc4ccccc4c(=O)n3C)CC2)cc1OC` (stereo not shown) [compound 76], the EC50 fell in the range of 10 to 25 µM and the Emax was less than 25%.
